Measurements: the NIST ThermoML archive (doi:10.1021/je4003916)
Numbers after ± are expanded uncertainties.

Assays:
[1] = xn = mol fraction of the nth substance listed; details: 101 kPa, Liquid, x2 = 0; for mass density: Vibrating tube method
[2] = refractive index (Na D-line) (dimensionless); xn = mol fraction of the nth substance listed; details: 101 kPa, Liquid, Dipping refractometry (monochromatic), x2 = 0
[3] = 293.15 K; 101.33 kPa; Liquid; Vibrating tube method

CCCCO [butan-1-ol] + C1CCOC1
Details	mass density, [1] [kg/m3]	refractive index, [2]	viscosity, [1] [mPa·s]
288.15 K	813.37 ± 0.14	1.4014 ± 0.0002	3.375 ± 0.03
293.15 K	809.57 ± 0.14	1.3993 ± 0.0002	2.945 ± 0.027
298.15 K	805.76 ± 0.14	1.3973 ± 0.0002	2.581 ± 0.025
303.15 K	801.92 ± 0.14	1.3952 ± 0.0002	2.272 ± 0.023
308.15 K	798.05 ± 0.14	1.3932 ± 0.0002	2.008 ± 0.021
313.15 K	794.15 ± 0.14	1.3911 ± 0.0002	1.782 ± 0.019
318.15 K	790.23 ± 0.14	1.389 ± 0.0002	1.587 ± 0.018
323.15 K	786.24 ± 0.15	1.3869 ± 0.0002	1.419 ± 0.017

CCCCO [butan-1-ol] + COC(=O)CCCCC(=O)OC
[1], stabinger viscometer
Details	viscosity [mPa·s]
288.15 K	3.375 ± 0.009
293.15 K	2.945 ± 0.008
298.15 K	2.581 ± 0.007
303.15 K	2.272 ± 0.007
308.15 K	2.008 ± 0.006
313.15 K	1.782 ± 0.005
318.15 K	1.587 ± 0.005
323.15 K	1.419 ± 0.005

COC(=O)CCCCC(=O)OC [dimethyl 1,6-hexanedioate]
Details	mass density [kg/m3]
[3]	1061.93 ± 0.28
